Laboratory results published in PubChem BioAssay AID248 (DTP/NCI, 2004).
Where “and” joins values, the source holds several entries; their conditions need not be identical. Equal values may be shown once. Toxic doses and inconclusive results are not listed. No stated cut-off is given here; in the data, active means T/C of 150% or more; inactive means T/C below 125%.

Test system: L1210 leukemia ip in BDF1 mice, survival T/C
Assay: NCI In Vivo Anticancer Drug Screen. Data for tumor model L1210 Leukemia (intraperitoneal) in B6D2F1 (BDF1) mice
Conditions: endpoint: mean survival time, higher = longer survival
Procedure, shortened: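 Antitumor effect is assessed in tumor-bearing animals. Survival in the compound arm is compared with a vehicle-dosed control arm and expressed as their quotient.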

[1] = dose: 100.0 mg/kg/injection, schedule: Q01DX009 (ip), vehicle: saline
[2] = dose: 100.0 mg/kg/injection, schedule: Q04DX003 (ip), vehicle: saline
[3] = dose: 200.0 mg/kg/injection, schedule: Q01DX009 (ip), vehicle: saline
[4] = dose: 200.0 mg/kg/injection, schedule: Q04DX003 (ip), vehicle: saline
[5] = dose: 400.0 mg/kg/injection, schedule: Q04DX003 (ip), vehicle: saline
[6] = dose: 100.0 mg/kg/injection, schedule: Q01DX001 (ip), vehicle: saline with Tween-80
[7] = dose: 200.0 mg/kg/injection, schedule: Q01DX001 (ip), vehicle: saline with Tween-80
[8] = dose: 400.0 mg/kg/injection, schedule: Q01DX001 (ip), vehicle: saline with Tween-80
[9] = dose: 100.0 mg/kg/injection, schedule: Q01DX009 (ip), vehicle: Klucel (hydroxypropylcellulose) (HPC)
[10] = dose: 200.0 mg/kg/injection, schedule: Q01DX009 (ip), vehicle: Klucel (hydroxypropylcellulose) (HPC)
[11] = dose: 100.0 mg/kg/injection, schedule: Q04DX003 (ip), vehicle: saline with Tween-80
[12] = dose: 200.0 mg/kg/injection, schedule: Q04DX003 (ip), vehicle: saline with Tween-80
[13] = dose: 100.0 mg/kg/injection, schedule: Q01DX001 (ip), vehicle: carboxymethylcellulose (CMC)
[14] = dose: 200.0 mg/kg/injection, schedule: Q01DX001 (ip), vehicle: carboxymethylcellulose (CMC)
[15] = dose: 400.0 mg/kg/injection, schedule: Q01DX001 (ip), vehicle: carboxymethylcellulose (CMC)
[16] = dose: 100.0 mg/kg/injection, schedule: Q01DX009 (ip), vehicle: saline with Tween-80
[17] = dose: 200.0 mg/kg/injection, schedule: Q01DX009 (ip), vehicle: saline with Tween-80
[18] = dose: 400.0 mg/kg/injection, schedule: Q01DX009 (ip), vehicle: saline with Tween-80

Measured: T/C

O=C1C=C(C23CC4CC(CC(C4)C2)C3)Nc2ccccc2N1
inactive: dose: 100.0 mg/kg/injection, schedule: Q04DX002 (ip), vehicle: Klucel (hydroxypropylcellulose) (HPC) 94 % of control | dose: 200.0 mg/kg/injection, schedule: Q04DX002 (ip), vehicle: Klucel (hydroxypropylcellulose) (HPC) 105 % of control | dose: 400.0 mg/kg/injection, schedule: Q04DX002 (ip), vehicle: Klucel (hydroxypropylcellulose) (HPC) 94 % of control

BrC12CCC(CC1)C1CCC2CC1
inactive: [1] 90 % of control | [2] 96 % of control | [3] 87 % of control | [4] 97 % of control | dose: 400.0 mg/kg/injection, schedule: Q01DX009 (ip), vehicle: saline 88 % of control | [5] 98 % of control

Cc1ccc(S(=O)(=O)OC2C(C)C3CS(=O)(=O)C32)cc1 (stereo unspecified)
inactive: dose: 100.0 mg/kg/injection, schedule: Q04DX002 (ip), vehicle: DMSO 119 % of control | dose: 200.0 mg/kg/injection, schedule: Q04DX002 (ip), vehicle: DMSO 105 % of control | dose: 400.0 mg/kg/injection, schedule: Q04DX002 (ip), vehicle: DMSO 102 % of control

CCCCCCCCCCCCCCCCC
inactive: [6] 113 % of control | [7] 108 % of control | [8] 97 % of control

Cc1cc(Cl)c(Cl)cc1NC(=O)/C=C\c1ccccc1
inactive: [9] 114 % of control | dose: 100.0 mg/kg/injection, schedule: Q04DX003 (ip), vehicle: Klucel (hydroxypropylcellulose) (HPC) 91 % of control | [10] 108 % of control | dose: 200.0 mg/kg/injection, schedule: Q04DX003 (ip), vehicle: Klucel (hydroxypropylcellulose) (HPC) 94 % of control | dose: 400.0 mg/kg/injection, schedule: Q01DX009 (ip), vehicle: Klucel (hydroxypropylcellulose) (HPC) 102 % of control | dose: 400.0 mg/kg/injection, schedule: Q04DX003 (ip), vehicle: Klucel (hydroxypropylcellulose) (HPC) 97 % of control

COC1OC(COC(c2ccccc2)(c2ccccc2)c2ccccc2)C(O)C(O)C1O (stereo unspecified)
inactive: dose: 50.0 mg/kg/injection, schedule: Q01DX009 (ip), vehicle: Klucel (hydroxypropylcellulose) (HPC) 89 % of control | [9] 93 % of control | [10] 89 % of control

CCC1OC(=O)CC(O)C(C)C(OC2OC(C)CC(N(C)C)C2O)C(CC=O)CC(C)C(=O)/C=C/C2(C)OC2C1C (stereo unspecified)
inactive: dose: 75.0 mg/kg/injection, schedule: Q01DX009 (ip), vehicle: saline with Tween-80 93 % of control | dose: 150.0 mg/kg/injection, schedule: Q01DX009 (ip), vehicle: saline with Tween-80 102 % of control

CC1CN1P(=O)(N1CC=CCC1)N1CC1C (stereo unspecified)
inactive: dose: 50.0 mg/kg/injection, schedule: Q01DX001 (ip), vehicle: saline 109 % of control | dose: 100.0 mg/kg/injection, schedule: Q01DX001 (ip), vehicle: saline 120 % of control | dose: 200.0 mg/kg/injection, schedule: Q01DX001 (ip), vehicle: saline 101 % of control | dose: 400.0 mg/kg/injection, schedule: Q01DX001 (ip), vehicle: saline 91 % of control

CCCOP(=O)(OCCC)C(OC(=O)C(C)C)=C(C)C
inactive: [11] 97 % of control | [12] 94 % of control

O=C(Nc1ccccc1C(F)(F)F)Nc1cccc2c(O)cccc12
inactive: [13] 93 % of control and 100 % of control | dose: 100.0 mg/kg/injection, schedule: Q01DX009 (ip), vehicle: carboxymethylcellulose (CMC) 100 % of control and 91 % of control | dose: 100.0 mg/kg/injection, schedule: Q04DX002 (ip), vehicle: carboxymethylcellulose (CMC) 86 % of control | dose: 100.0 mg/kg/injection, schedule: Q04DX003 (ip), vehicle: carboxymethylcellulose (CMC) 88 % of control and 91 % of control | [14] 93 % of control and 89 % of control | dose: 200.0 mg/kg/injection, schedule: Q01DX009 (ip), vehicle: carboxymethylcellulose (CMC) 100 % of control and 103 % of control | dose: 200.0 mg/kg/injection, schedule: Q04DX002 (ip), vehicle: carboxymethylcellulose (CMC) 96 % of control and 89 % of control | dose: 200.0 mg/kg/injection, schedule: Q04DX003 (ip), vehicle: carboxymethylcellulose (CMC) 97 % of control and 88 % of control | [15] 94 % of control and 90 % of control | dose: 400.0 mg/kg/injection, schedule: Q01DX009 (ip), vehicle: carboxymethylcellulose (CMC) 96 % of control and 91 % of control | dose: 400.0 mg/kg/injection, schedule: Q04DX002 (ip), vehicle: carboxymethylcellulose (CMC) 89 % of control and 90 % of control | dose: 400.0 mg/kg/injection, schedule: Q04DX003 (ip), vehicle: carboxymethylcellulose (CMC) 97 % of control and 88 % of control

O=C1C(Cc2ccccc2)C(=O)N(Cc2ccccc2)C(=O)N1Cc1ccccc1
inactive: [13] 88 % of control | [14] 90 % of control | [15] 88 % of control

CN(N=Nc1ccc(C(N)=O)cc1)C1CCCCC1
inactive: dose: 100.0 mg/kg/injection, schedule: Q01DX001 (ip), vehicle: other 91 % of control | dose: 200.0 mg/kg/injection, schedule: Q01DX001 (ip), vehicle: other 107 % of control

O=C(O)CNCc1ccc(Cl)cc1
inactive: dose: 12.5 mg/kg/injection, schedule: Q01DX009 (ip), vehicle: water 104 % of control | dose: 25.0 mg/kg/injection, schedule: Q01DX009 (ip), vehicle: water 96 % of control | dose: 50.0 mg/kg/injection, schedule: Q01DX009 (ip), vehicle: water 104 % of control and 91 % of control | dose: 100.0 mg/kg/injection, schedule: Q01DX009 (ip), vehicle: water 100 % of control | dose: 100.0 mg/kg/injection, schedule: Q01DX Z (ip), vehicle: saline 111 % of control | dose: 100.0 mg/kg/injection, schedule: Q04DX003 (ip), vehicle: water 88 % of control | dose: 200.0 mg/kg/injection, schedule: Q01DX Z (ip), vehicle: saline 100 % of control | dose: 200.0 mg/kg/injection, schedule: Q04DX003 (ip), vehicle: water 92 % of control

CCNC(=O)c1cc[n+](CC)c(/C=C/c2c[nH]c3ccccc23)c1
inactive: [13] 96 % of control | [14] 98 % of control | [15] 100 % of control

CN(C)C(=O)Nc1cccc(OC(=O)NC2CCCCC2)c1
inactive: [6] 97 % of control | [7] 92 % of control | [8] 87 % of control

COC1OC2COC(c3ccccc3)OC2C(OC(=S)N(C)C)C1OC(=S)N(C)C (stereo unspecified)
inactive: dose: 100.0 mg/kg/injection, schedule: Q04DX003 (ip), vehicle: saline sonified 94 % of control | dose: 200.0 mg/kg/injection, schedule: Q04DX003 (ip), vehicle: saline sonified 92 % of control | dose: 400.0 mg/kg/injection, schedule: Q04DX003 (ip), vehicle: saline sonified 92 % of control

O=c1[nH]cc(Br)c2sccc12
inactive: [11] 100 % of control | [12] 105 % of control

CN(C)CCCNc1cc2c3ccccc3ncc2c2ccccc12
inactive: [16] 98 % of control | [11] 108 % of control | [17] 93 % of control | [12] 113 % of control | [18] 108 % of control | dose: 400.0 mg/kg/injection, schedule: Q04DX003 (ip), vehicle: saline with Tween-80 101 % of control

CC(O)C(=O)OCCOc1ccc(Cl)cc1Cl (stereo unspecified)
active: dose: 50.0 mg/kg/injection, schedule: Q01DX009 (ip), vehicle: saline 670 % of control
inactive: [1] 91 % of control | [2] 100 % of control | [3] 95 % of control | [4] 100 % of control | [5] 97 % of control

Cc1cc(Cl)c(Cl)cc1NC(=O)c1ccc(Cl)c(Cl)c1
inactive: [16] 94 % of control and 101 % of control | [17] 101 % of control | [18] 102 % of control and 104 % of control

CC(CCl)N(CCCl)Cc1cccc(Nc2ncnc3nc[nH]c23)c1 (stereo unspecified)
inactive: dose: 1.1 mg/kg/injection, schedule: Q01DX015 (ip), vehicle: saline 122 % of control | dose: 1.8 mg/kg/injection, schedule: Q01DX015 (ip), vehicle: saline 112 % of control | dose: 3.0 mg/kg/injection, schedule: Q01DX015 (ip), vehicle: saline 109 % of control | dose: 4.4 mg/kg/injection, schedule: Q01DX001 (ip), vehicle: saline 120 % of control | dose: 5.0 mg/kg/injection, schedule: Q01DX001 (ip), vehicle: saline 121 % of control | dose: 5.0 mg/kg/injection, schedule: Q01DX015 (ip), vehicle: saline 102 % of control | dose: 6.6 mg/kg/injection, schedule: Q01DX001 (ip), vehicle: saline 120 % of control | dose: 20.0 mg/kg/injection, schedule: Q01DX001 (ip), vehicle: saline 117 % of control
